According to article PMC7978378, “Discovery of novel dual adenosine A1/A2A receptor antagonists using deep learning, pharmacophore modeling and molecular docking” (PLoS Computational Biology, 2021):

Legend:
[1] = parameters: method as in PMID 20973483; settings: further studies; cited from earlier work
animal models of PD = tested on: animal models of PD; parameters: method as in PMID 20973483; settings: oral administration; cited from earlier work
A1 receptor = settings: cited from earlier work
A2A receptor = settings: cited from earlier work
A1AR [2] = molecular target: A1AR; parameters: method as in ChEMBL25 [53]; settings: S1 Table training set; ref ChEMBL25 [53]; read-out: Ki (nM) A1; cited from earlier work
A2AAR [3] = molecular target: A2AAR; parameters: method as in ChEMBL25 [53]; settings: S1 Table training set; ref ChEMBL25 [53]; read-out: Ki (nM) A2A; cited from earlier work
A1AR [4] = molecular target: T1, A1AR (Homo sapiens, UniProt P30542); experiment: cAMP functional assay, CHO-A1 cells; assay type: cell-based; parameters: host or cells: CHO-A1 cells; settings: antagonism of NECA effect on cAMP, 5.08 × 10^−3 to 100 μM, read-out: cAMP assays (pIC50) A1 (converted)
T1 sequence (P30542 1-326): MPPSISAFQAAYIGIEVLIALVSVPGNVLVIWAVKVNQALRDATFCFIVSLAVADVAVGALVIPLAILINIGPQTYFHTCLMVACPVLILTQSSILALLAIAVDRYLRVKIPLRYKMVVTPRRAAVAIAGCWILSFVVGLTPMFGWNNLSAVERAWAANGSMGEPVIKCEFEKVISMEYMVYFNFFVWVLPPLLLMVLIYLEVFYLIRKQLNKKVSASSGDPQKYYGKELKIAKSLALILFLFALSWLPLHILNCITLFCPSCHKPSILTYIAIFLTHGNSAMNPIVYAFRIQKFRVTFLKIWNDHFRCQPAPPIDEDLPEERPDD

A2AAR [5] = molecular target: T2, A2AAR (Homo sapiens, UniProt P29274); experiment: Radioligand binding assay ([3H]ZM241385); settings: [3H]ZM241385 0.5 nM, 90 min at 27°C, Cheng-Prusoff; read-out: Binding affinities (pKi) A2A (converted)
T2 sequence (P29274 whole entry): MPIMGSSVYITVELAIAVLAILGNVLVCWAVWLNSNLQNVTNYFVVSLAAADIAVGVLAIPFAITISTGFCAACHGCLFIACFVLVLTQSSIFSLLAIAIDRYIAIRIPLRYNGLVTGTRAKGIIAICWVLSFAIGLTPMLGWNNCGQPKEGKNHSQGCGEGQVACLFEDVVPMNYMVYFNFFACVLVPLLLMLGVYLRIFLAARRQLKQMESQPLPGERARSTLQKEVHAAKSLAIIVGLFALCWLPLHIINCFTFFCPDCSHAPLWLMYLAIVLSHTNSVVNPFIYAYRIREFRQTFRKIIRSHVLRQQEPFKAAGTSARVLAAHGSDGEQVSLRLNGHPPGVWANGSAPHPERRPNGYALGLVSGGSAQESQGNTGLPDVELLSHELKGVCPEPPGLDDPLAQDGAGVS

A1AR [6] = molecular target: T1, A1AR; experiment: biochemical
A2AAR [7] = molecular target: T2, A2AAR; experiment: cAMP functional assay, HEK293-A2A cells; assay type: cell-based; parameters: host or cells: HEK293-A2A cells; settings: antagonism of NECA effect on cAMP, 5.08 × 10^−3 to 100 μM, read-out: cAMP assays (pIC50) A2A (converted)
A1/A2A ARs [8] = experiment: Radioligand binding assays, summarised over both receptors; parameters: species or system human; settings: range over A1AR and A2AAR radioligand binding assays
A1/A2A ARs [9] = experiment: cAMP functional assay, summarised over both receptors; settings: range over A1AR and A2AAR cAMP assays
rodents = settings: forced swim test and tail suspension test in rodents; cited from earlier work

Structure (SMILES) | IC50 (A1AR [4]) [nM] | Ki (A1AR [2]) [nM] | Ki (A2AAR [3]) [nM] | also measured
Nc1nc(-c2ccccc2)c2c(n1)-c1cc(CN3CCCC3)ccc1C2=O [2-amino-4-phenyl-8-(pyrrolidin-1-ylmethyl)-5H-indeno[1,2-d]pyrimidin-5-one] | – | – | – | genotoxicity [1]: genotoxic; activity in animal models of PD (animal models of PD): excellent activity
Cc1ccc(-c2cc(-c3cccc(C(=O)N4CCCCC4)c3)nc(N)n2)o1 [4-(5-methylfuran-2-yl)-6-[3-(piperidine-1-carbonyl)phenyl]pyrimidin-2-amine] | – | – | – | Ki (A1 receptor): 9.54 nM; Ki (A2A receptor): 6.34 nM
N#Cc1c(N)nc(SCc2ncc[nH]2)c(C#N)c1-c1ccc(O)cc1 [CHEMBL122622] | – | 2.6 | 28 | –
COc1ccc(NC(=O)Nc2nc3ccc(Cl)cc3c3nc(-c4ccco4)nn23)cc1 [CHEMBL144979] | – | 7.6 | 9.4 | –
CCCCCc1nc(N)c2nc(-n3nccn3)n(C)c2n1 [CHEMBL196258] | – | 26.2 | – | –
Nc1nc(C#C[C@@H](O)c2ccccc2)nc2c1ncn2[C@@H]1O[C@H](CO)[C@@H](O)[C@H]1O [CHEMBL262363] | – | 0.67 | 1.8 | –
OC[C@H]1O[C@@H](n2cnc3c(NC4CCCC4)nc(Cl)nc32)[C@H](O)[C@@H]1O [CHEMBL284969] | – | – | 17 | –
CC(=O)Nc1cc(-n2cccn2)nc(-c2ccco2)n1 [CHEMBL401321] | – | 9.45 | 0.6 | –
Cc1ccc(-c2nc(N)nc3c2nnn3Cc2ccccc2F)o1 [CHEMBL461857] | – | 19 | 2.1 | –
CC(=O)Nc1cc(-c2cccc(N3CCCC3)n2)nc(-n2nc(C)cc2C)n1 [CHEMBL485765] | – | 7.2 | 0.26 | –
O=C(NC1CC1)[C@H]1S[C@@H](n2cnc3c(NCc4cccc(I)c4)ncnc32)[C@H](O)[C@@H]1O [CHEMBL596014] | – | – | 15.2 | –
Nc1nc(-c2ccccc2)c2c(n1)-c1cc(N3CCOCC3)ccc1C2=O [CHEMBL1095822] | – | 32.4 | 2.9 | –
CCn1c(/N=C/c2ccc(F)cc2)c(C#N)sc1=S [CHEMBL2419148] | – | – | 11 | –
CN(C)CCOc1ccc(-c2nc3c([nH]2)c(=O)n(C)c(=O)n3C)cc1 [CHEMBL3121720] | – | 1.82 | 0.4 | –
CCCCNC(=O)CCn1nc(-c2ccccc2)c2ccccc2c1=O [Compound C1] | > 100000 | – | – | –
O=C(CCCn1c2ccccc2c2cn[nH]c(=O)c21)NCc1cccs1 [Compound C3] | > 100000 | – | – | –
O=C(c1ccco1)n1nc(-c2ccco2)nc1NCc1ccccc1 [Compound C4] | 3090 | – | – | Ki (A2AAR [5]): 19500 nM; Ki (A1AR [6]): 2090 nM; IC50 (A2AAR [7]): > 100000 nM
CCCNc1cc(C)nc2c(C)c(-c3ccc(C)cc3)nn12 [Compound C10] | 347 | – | – | Ki (A2AAR [5]): 8320 nM; Ki (A1AR [6]): 170 nM; IC50 (A2AAR [7]): 10000 nM
O=C(Cn1c(=O)n(-c2ccccc2)c2ncccc21)NCc1cccc(F)c1 [Compound C18] | > 100000 | – | – | –
CCn1c(=O)c2c(nc(/C=C/c3ccc(OC)c(OC)c3)n2C)n(CC)c1=O [KW-6002] | – | – | – | antidepressant activity (rodents): antidepressant activity

More lines, main results first:

IC50 (A1AR [4]) [nM] | Structure (SMILES) | Ki (A1AR [2]) [nM] | Ki (A2AAR [3]) [nM] | also measured
> 100000 | O=C(COc1ccccc1)Nc1c(C(=O)Nc2cccc(F)c2)oc2ccccc12 [Compound C2] | – | – | –
1910 | Cc1ccccc1-c1nc(N)n(C(=O)Cc2ccccc2)n1 [Compound C7] | – | – | Ki (A2AAR [5]): 5750 nM; Ki (A1AR [6]): 1050 nM; IC50 (A2AAR [7]): > 100000 nM
191 | Nc1nc(-c2ccccc2Cl)nn1C(=O)c1cccc(Cl)c1 [Compound C9] | – | – | Ki (A2AAR [5]): 69.2 nM; pKi for A1/A2A ARs (A1/A2A ARs [8]): 7.16–7.49; Ki (A1AR [6]): 32.4 nM; IC50 (A2AAR [7]): 490 nM; pIC50 towards A1/A2A ARs (A1/A2A ARs [9]): 6.31–6.78
> 100000 | Cn1c(=O)c2c(-c3cccc(Cl)c3)c(Nc3ccccc3)oc2n(C)c1=O [Compound C11] | – | – | –
> 100000 | O=C(Cc1csc(NC(=O)c2ccc3c(c2)OCO3)n1)NCCCc1ccccc1 [Compound C13] | – | – | –
> 100000 | Cc1cccc(NC(=O)Cc2csc(NC(=O)c3ccc4c(c3)OCO4)n2)c1 [Compound C14] | – | – | –
4470 | CC(=O)c1cccc(NC(=O)Nc2cc3c(cc2Oc2ccccc2)n(C)c(=O)n3C)c1 [Compound C15] | – | – | Ki (A2AAR [5]): > 100000 nM; Ki (A1AR [6]): 2880 nM; IC50 (A2AAR [7]): 7940 nM; pIC50 towards A1/A2A ARs (A1/A2A ARs [9]): 5.10–5.35
> 100000 | CCCn1ccc2c(OCC(=O)Nc3ccc(OCC)cc3)cccc2c1=O [Compound C16] | – | – | –
631 | CCn1cnc2c(-c3ccccc3)cn(CC(=O)Nc3cccc(F)c3)c2c1=O [Compound C17] | – | – | Ki (A2AAR [5]): > 100000 nM; Ki (A1AR [6]): 525 nM; IC50 (A2AAR [7]): 63100 nM
52500 | Cc1ccc(-c2c(C(=O)NCc3ccncc3)nc3ccccn23)cc1 [Compound C19] | – | – | Ki (A2AAR [5]): 11700 nM; Ki (A1AR [6]): 10700 nM; IC50 (A2AAR [7]): > 100000 nM
